The values below come from US11548868B2, “Heterocyclic compounds, compositions comprising heterocyclic compound, and methods of use thereof” (JS INNOPHARM (SHANGHAI) LTD, priority 2017, dated 2023).

The term IC50 denotes the concentration at which inhibition is half-maximal. A high value points to lower potency.

Experiment [1] addresses T1, IDO1 in Hela cancer cells (Homo sapiens, UniProt P14902).
T1 construct: endogenous in cells; host or cells: Hela cancer cells stimulated with human IFN-γ
In words: IDO1 Cellular Assay (kynurenine production in IFN-γ stimulated Hela cancer cells). Format: cell-based. Conditions: human IFN-γ 50 ng/mL, 48 hours incubation, kynurenine at 490 nm. As for the experimental part: Hela cancer cells (5×10^3 per well) with 85 μL DMEM medium containing 10% FBS were seeded in a 96-well plate and incubated at 95% humidity and 5% CO2 at 37° C. for 24 hours. human IFN-γ (10 μL, 50 ng/mL final concentration) and 5 μL serial dilutions of the test compounds were added into each well. The test compounds were dissolved in DMSO, and successively diluted with pH7.5 buffer (with final DMSO concentration of 0.25%) resulting in final concentrations of the test compounds ranging from 0 to 25 μM (0, 2.5, 7.5, 25, 75, 250, 750, 2500, 7500, & 25000 nM). After 48 hours of incubation, 70 uL of the supernatant per well was transferred to a new 96 well plate. Trichloroacetic acid (6.1 N, 8 μL) was mixed into each well and incubated at 50° C. for 30 min to hydrolyze N-formylkynurenine produced by IDO to kynurenine. The reaction mixture was then centrifuged for 10 min at 2500 RPM to remove sediments. 50 μL of the supernatant per well was transferred to another 96 well plate and mixed with 50 uL of 2% (w/v) p-dimethylaminobenzaldehyde in acetic acid. The yellow color derived from kynurenine was measured at 490 nm using a microplate reader. Percent inhibition of the test compounds was determined by measuring the decrease in kynurenine as compared to the control of DMSO vehicle, which was calculated by formula of (WC-WT)/WC, where WC is the mean absorbance of the control well minus blank well; WT is the mean absorbance of the test well minus the blank well. Data was analyzed by GraphPad Prism 5 and the IC50 values were obtained by non-linear regression.
(§1) The IC50 values of for Compounds disclosed are listed in Table 2, A′: ≤0.5 μM; B′: >0.5 μM and ≤1 μM; C′: >1.0 μM and ≤5 uM; and D′: >5 μM.

Experiment [2] addresses T2, TDO2 in A172 cancer cells (Homo sapiens, UniProt P48775).
T2 construct: endogenous in cells; host or cells: A172 cancer cells
In words: TDO2 Cellular Assay (kynurenine production in A172 cancer cells). Format: cell-based. Conditions: L-Trp 1 mM, 24 hours incubation, kynurenine at 490 nm. As for the experimental part: A172 cancer cells (3×10^4 per well) in 85 μL DMEM medium containing 10% FBS were seeded in a 96-well plate and incubated at 95% humidity and 5% CO2 at 37° C. for overnight. On the next day, L-Trp solution (10 μL, 1 mM final concentration) and serial dilutions of the test compounds and DMEM medium resulting in a total final volume of 100 μL each well. The test compounds were dissolved in DMSO and successively diluted with pH7.5 butter (with final DMSO concentration of 0.25%) resulting in final concentrations of the test compounds ranging from 0 to 25 μM (0, 2.5, 7.5, 25, 75, 250, 750, 2500, 7500, & 25000 nM). After 24 hours of incubation, 70 uL of the supernatant per well was transferred to a new 96 well plate. 8 μL of trichloroacetic acid (6.1 N) was mixed into each well and incubated at 50° C. for 30 min to hydrolyze N-formylkynurenine to kynurenine. The reaction mixture was then centrifuged for 10 min at 2500 RPM to remove sediments. 50 μL of the supernatant per well was transferred to another 96 well plate and mixed with 50 μL of 2% (w/v) p-dimethylaminobenzaldehyde in acetic acid. The yellow color derived from kynurenine was measured at 490 nm using a microplate reader. Percent inhibition of the test compounds was determined by measuring the decrease in kynurenine as compared to the control of DMSO vehicle, which was calculated by formula of (WC−WT)/WC, where WC is the mean absorbance of the control well minus blank well; WT is the mean absorbance of the test well minus the blank well. Data was analyzed by GraphPad Prism 5 and the IC50 values were obtained by non-linear regression.
as §1

Structures can show the parent of a compound that is named as a salt.

T2 sequence (P48775 whole entry): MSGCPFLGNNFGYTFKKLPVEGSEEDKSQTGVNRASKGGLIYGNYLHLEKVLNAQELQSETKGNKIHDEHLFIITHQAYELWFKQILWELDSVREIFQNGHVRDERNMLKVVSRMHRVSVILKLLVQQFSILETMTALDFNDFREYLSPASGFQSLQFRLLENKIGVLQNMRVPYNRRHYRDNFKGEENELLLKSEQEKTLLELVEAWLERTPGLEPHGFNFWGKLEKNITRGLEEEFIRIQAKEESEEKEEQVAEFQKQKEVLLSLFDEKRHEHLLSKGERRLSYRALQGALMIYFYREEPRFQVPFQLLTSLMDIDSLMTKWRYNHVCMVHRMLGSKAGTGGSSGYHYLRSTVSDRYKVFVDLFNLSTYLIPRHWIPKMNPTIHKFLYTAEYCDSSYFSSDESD
T1 sequence (P14902 whole entry): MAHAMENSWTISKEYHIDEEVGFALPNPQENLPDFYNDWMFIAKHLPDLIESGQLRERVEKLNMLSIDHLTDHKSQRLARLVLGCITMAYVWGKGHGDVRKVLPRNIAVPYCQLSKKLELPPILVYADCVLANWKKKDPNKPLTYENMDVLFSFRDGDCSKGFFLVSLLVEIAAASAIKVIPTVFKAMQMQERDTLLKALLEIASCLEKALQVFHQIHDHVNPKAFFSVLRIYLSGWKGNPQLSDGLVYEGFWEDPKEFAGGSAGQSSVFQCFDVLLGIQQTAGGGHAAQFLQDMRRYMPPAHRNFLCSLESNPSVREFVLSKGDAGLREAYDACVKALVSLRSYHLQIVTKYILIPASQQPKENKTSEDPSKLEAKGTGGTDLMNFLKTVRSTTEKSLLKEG

For `CC(=O)N1C[C@@H]2CN(c3cc(Cl)cn4cncc34)C[C@@H]2C1(C)C` (racemic) [Example 41, Racemic-1-((3aS,6aR)-5-(6-chloroimidazo[1,5-a]pyridin-8-yl)-1,1-dimethylhexahydropyrrolo[3,4-c]pyrrol-2(1H)-yl)ethanone], the IC50 in experiment [1] is more than 5000 nM; in experiment [2], 1000 to 5000 nM.
The corresponding values for `CC(=O)N1C[C@@H]2CN(c3cc(Cl)cc4cncn34)C[C@@H]2C1(C)C` (racemic) [Example 43, Racemic-1-((3aS,6aR)-5-(7-chloroimidazo[1,5-a]pyridin-5-yl)-1,1-dimethylhexahydropyrrolo[3,4-c]pyrrol-2(1H)-yl)ethanone] are more than 5000 nM and more than 5000 nM.
The corresponding values for `CC1(C)[C@H]2CN(c3cc(Cl)cc4cncn34)C[C@H]2CN1S(C)(=O)=O` (racemic) [Example 44, Racemic-7-chloro-5-((3aR,6aS)-4,4-dimethyl-5-(methylsulfonyl)hexahydropyrrolo[3,4-c]pyrrol-2(1H)-yl)imidazo[1,5-a]pyridine] are more than 5000 nM and more than 5000 nM.
The corresponding values for `CC(=O)N1C[C@@H]2CN(c3cc(C(F)(F)F)cn4cncc34)C[C@@H]2C1(C)C` (racemic) [Example 45, Racemic-1-((3aS,6aR)-1,1-dimethyl-5-(6-(trifluoromethyl)imidazo[1,5-a]pyridin-8-yl)hexahydropyrrolo[3,4-c]pyrrol-2(1H)-yl)ethanone] are more than 5000 nM and 1000 to 5000 nM.
For `O=S(=O)(N[C@H]1[C@@H]2C[C@@](O)(c3cc(Cl)cc4[nH]ncc34)C[C@@H]21)C1CCCC1` [Example 74, N-((1R,3r,5S,6r)-3-(6-chloro-1H-indazol-4-yl)-3-hydroxybicyclo[3.1.0]hexan-6-yl)cyclopentanesulfonamide], the IC50 in experiment [2] is not above 500 nM.
`O=C(N[C@H]1[C@@H]2C[C@@](O)(c3cc(Cl)cc4[nH]ncc34)C[C@@H]21)C1CCCO1` (stereo partly drawn) [Example 75, N-((1R,3r,5S,6r)-3-(6-chloro-1H-indazol-4-yl)-3-hydroxybicyclo[3.1.0]hexan-6-yl)tetrahydrofuran-2-carboxamide] had an IC50 in experiment [2] not above 500 nM.
`O=C(N[C@H]1[C@@H]2C[C@@](O)(c3cc(Cl)cc4[nH]ncc34)C[C@@H]21)C1CC1` [Example 76, N-((1R,3r,5S,6r)-3-(6-chloro-1H-indazol-4-yl)-3-hydroxybicyclo[3.1.0]hexan-6-yl)cyclopropanecarboxamide]: in experiment [2], the IC50 was not above 500 nM.
Still for that read-out and setting: then `CC(C)S(=O)(=O)N[C@H]1[C@@H]2C[C@@](O)(c3cc(Cl)cc4[nH]ncc34)C[C@@H]21` [Example 77, N-((1R,3r,5S,6r)-3-(6-chloro-1H-indazol-4-yl)-3-hydroxybicyclo[3.1.0]hexan-6-yl)propane-2-sulfonamide], with not above 500 nM; and `O=S(=O)(N[C@H]1[C@@H]2C[C@@](O)(c3cc(Cl)cc4[nH]ncc34)C[C@@H]21)C1CCCCC1` [Example 78, N-((1R,3r,5S,6r)-3-(6-chloro-1H-indazol-4-yl)-3-hydroxybicyclo[3.1.0]hexan-6-yl)cyclohexanesulfonamide], with not above 500 nM.
On the same count and under the same terms, the figure for `O=C(N[C@H]1[C@@H]2C[C@@](O)(c3cc(Cl)cc4[nH]ncc34)C[C@@H]21)C1CCCC1` [Example 79, N-((1R,3r,5S,6r)-3-(6-chloro-1H-indazol-4-yl)-3-hydroxybicyclo[3.1.0]hexan-6-yl)cyclopentanecarboxamide] is not above 500 nM; for `COC(=O)N[C@H]1[C@@H]2C[C@@](O)(c3cc(Cl)cc4[nH]ncc34)C[C@@H]21` [Example 80, methyl ((1R,3r,5S,6r)-3-(6-chloro-1H-indazol-4-yl)-3-hydroxybicyclo[3.1.0]hexan-6-yl)carbamate] it is not above 500 nM.
Same read-out and setting: then `CCOC(=O)N[C@H]1[C@@H]2C[C@@](O)(c3cc(Cl)cc4[nH]ncc34)C[C@@H]21` [Example 81, ethyl ((1R,3r,5S,6r)-3-(6-chloro-1H-indazol-4-yl)-3-hydroxybicyclo[3.1.0]hexan-6-yl)carbamate], with not above 500 nM.
As to `CCC(=O)N[C@H]1[C@@H]2C[C@@](O)(c3cc(Cl)cc4[nH]ncc34)C[C@@H]21` [Example 82, N-((1R,3r,5S,6r)-3-(6-chloro-1H-indazol-4-yl)-3-hydroxybicyclo[3.1.0]hexan-6-yl)propionamide], in experiment [2], the IC50 is not above 500 nM.
For `O=C(N[C@H]1[C@@H]2C[C@@](O)(c3cc(Cl)cc4[nH]ncc34)C[C@@H]21)C1CCC1` [Example 84, N-((1R,3r,5S,6r)-3-(6-chloro-1H-indazol-4-yl)-3-hydroxybicyclo[3.1.0]hexan-6-yl)cyclobutanecarboxamide], the half-maximal inhibitory concentration (IC50) in experiment [2] was not above 500 nM.
On the same count and under the same terms, the figure for `O=C(N[C@H]1[C@@H]2C[C@@](O)(c3cc(Cl)cc4[nH]ncc34)C[C@@H]21)C1CCCCC1` [Example 85, N-((1R,3r,5S,6r)-3-(6-chloro-1H-indazol-4-yl)-3-hydroxybicyclo[3.1.0]hexan-6-yl)cyclohexanecarboxamide] is not above 500 nM.
Same read-out and setting: the figure for `CC(C)OC(=O)N[C@H]1[C@@H]2C[C@@](O)(c3cc(Cl)cc4[nH]ncc34)C[C@@H]21` [Example 86, isopropyl ((1R,3r,5S,6r)-3-(6-chloro-1H-indazol-4-yl)-3-hydroxybicyclo[3.1.0]hexan-6-yl)carbamate] is not above 500 nM.
The compound `O=C(C1CCOCC1)N1C[C@@H]2C[C@@](O)(c3cc(Cl)cc4[nH]ncc34)C[C@@H]2C1` [Example 88, ((3aR,5r,6aS)-5-(6-chloro-1H-indazol-4-yl)-5-hydroxyhexahydrocyclopenta[c]pyrrol-2(1H)-yl)(tetrahydro-2H-pyran-4-yl)methanone] came in with an IC50 in experiment [2] not above 500 nM.
Still for that read-out and setting: the figure for `CC(C)(C)C(=O)N[C@H]1[C@@H]2C[C@@](O)(c3cc(Cl)cc4[nH]ncc34)C[C@@H]21` [Example 90, N-((1R,3r,5S,6r)-3-(6-chloro-1H-indazol-4-yl)-3-hydroxybicyclo[3.1.0]hexan-6-yl)pivalamide] is not above 500 nM; for `O=C(N[C@H]1[C@@H]2C[C@@](O)(c3cc(Cl)cc4[nH]ncc34)C[C@@H]21)C1CCOCC1` [Example 91, N-((1R,3r,5S,6r)-3-(6-chloro-1H-indazol-4-yl)-3-hydroxybicyclo[3.1.0]hexan-6-yl)tetrahydro-2H-pyran-4-carboxamide] it is not above 500 nM; for `CC(C)C(=O)N[C@H]1[C@@H]2C[C@@](O)(c3cc(Cl)cc4[nH]ncc34)C[C@@H]21` [Example 92, N-((1R,3r,5S,6r)-3-(6-chloro-1H-indazol-4-yl)-3-hydroxybicyclo[3.1.0]hexan-6-yl)isobutyramide] it is not above 500 nM.
The same measure, in the same setting: then `O=S(=O)(N[C@H]1[C@@H]2C[C@@](O)(c3cc(Cl)cc4[nH]ncc34)C[C@@H]21)C1CCOCC1` [Example 94, N-((1R,3r,5S,6r)-3-(6-chloro-1H-indazol-4-yl)-3-hydroxybicyclo[3.1.0]hexan-6-yl)tetrahydro-2H-pyran-4-sulfonamide], with not above 500 nM.
For `NCC(=O)N[C@H]1[C@@H]2C[C@@](O)(c3cc(Cl)cc4[nH]ncc34)C[C@@H]21` [Example 103, 2-amino-N-((1R,3r,5S,6r)-3-(6-chloro-1H-indazol-4-yl)-3-hydroxybicyclo[3.1.0]hexan-6-yl)acetamide hydrochloride], the IC50 in experiment [2] was in the range of 1000 to 5000 nM.
